Structure (SMILES) | melting point
O=C(Nc1nc(-c2ccco2)c(C(=O)C2CCOCC2)s1)c1ccccc1F [Compound 466, 2-Fluoro-N-[4-(2-furyl)-5-(tetrahydropyran-4-ylcarbonyl)thiazol-2-yl]benzamide] | 172 to 176 °C
O=C(Nc1nc(-c2ccco2)c(C(=O)C2CCOCC2)s1)c1ccccc1Cl [Compound 469, 2-Chloro-N-[4-(2-furyl)-5-(tetrahydropyran-4-ylcarbonyl)thiazol-2-yl]benzamide] | 160 to 162 °C
N#Cc1ccccc1C(=O)Nc1nc(-c2ccco2)c(C(=O)C2CCOCC2)s1 [Compound 472, 2-Cyano-N-[4-(2-furyl)-5-(tetrahydropyran-4-ylcarbonyl)thiazol-2-yl]benzamide] | 221 to 224 °C
N#Cc1cccc(C(=O)Nc2nc(-c3ccco3)c(C(=O)C3CCOCC3)s2)c1 [Compound 473, 3-Cyano-N-[4-(2-furyl)-5-(tetrahydropyran-4-ylcarbonyl)thiazol-2-yl]benzamide] | 257 to 260 °C
O=C(Nc1nc(-c2ccco2)c(C(=O)C2CCOCC2)s1)c1ccccc1OC(F)(F)F [Compound 475, N-[4-(2-Furyl)-5-(tetrahydropyran-4-ylcarbonyl)thiazol-2-yl]-2-(trifluoromethoxy)benzamide] | 131 to 134 °C
O=C(Nc1nc(-c2ccco2)c(C(=O)C2CCOCC2)s1)c1cccc(OC(F)(F)F)c1 [Compound 476, N-[4-(2-Furyl)-5-(tetrahydropyran-4-ylcarbonyl)thiazol-2-yl]-3-(trifluoromethoxy)benzamide] | 197 to 198 °C
COc1cccc(C(=O)Nc2nc(-c3ccco3)c(C(=O)C3CCOCC3)s2)c1OC [Compound 483, N-[4-(2-Furyl)-5-(tetrahydropyran-4-ylcarbonyl)thiazol-2-yl]-2,3-dimethoxybenzamide] | 198 to 200 °C
COc1ccc(C(=O)Nc2nc(-c3ccco3)c(C(=O)C3CCOCC3)s2)c(OC)c1 [Compound 484, N-[4-(2-Furyl)-5-(tetrahydropyran-4-ylcarbonyl)thiazol-2-yl]-2,4-dimethoxybenzamide] | 219 to 222 °C
COc1ccc(OC)c(C(=O)Nc2nc(-c3ccco3)c(C(=O)C3CCOCC3)s2)c1 [Compound 485, N-[4-(2-Furyl)-5-(tetrahydropyran-4-ylcarbonyl)thiazol-2-yl]-2,5-dimethoxybenzamide] | 107 to 110 °C
COc1cccc(OC)c1C(=O)Nc1nc(-c2ccco2)c(C(=O)C2CCOCC2)s1 [Compound 486, N-[4-(2-Furyl)-5-(tetrahydropyran-4-ylcarbonyl)thiazol-2-yl]-2,6-dimethoxybenzamide] | 152 to 156 °C
COc1ccc(C(=O)Nc2nc(-c3ccco3)c(C(=O)C3CCOCC3)s2)cc1OC [Compound 487, N-[4-(2-Furyl)-5-(tetrahydropyran-4-ylcarbonyl)thiazol-2-yl]-3,4-dimethoxybenzamide] | 289 to 292 °C
COc1cc(OC)cc(C(=O)Nc2nc(-c3ccco3)c(C(=O)C3CCOCC3)s2)c1 [Compound 488, N-[4-(2-Furyl)-5-(tetrahydropyran-4-ylcarbonyl)thiazol-2-yl]-3,5-dimethoxybenzamide] | 278 to 280 °C
O=C(Nc1nc(-c2ccco2)c(C(=O)C2CCOCC2)s1)c1cccc(F)c1F [Compound 489, 2,3-Difluoro-N-[4-(2-furyl)-5-(tetrahydropyran-4-ylcarbonyl)thiazol-2-yl]benzamide] | 154 to 160 °C
O=C(Nc1nc(-c2ccco2)c(C(=O)C2CCOCC2)s1)c1ccc(F)cc1F [Compound 490, 2,4-Difluoro-N-[4-(2-furyl)-5-(tetrahydropyran-4-ylcarbonyl)thiazol-2-yl]benzamide] | 213 to 215 °C
O=C(Nc1nc(-c2ccco2)c(C(=O)C2CCOCC2)s1)c1cc(F)ccc1F [Compound 491, 2,5-Difluoro-N-[4-(2-furyl)-5-(tetrahydropyran-4-ylcarbonyl)thiazol-2-yl]benzamide] | 172 to 174 °C
O=C(Nc1nc(-c2ccco2)c(C(=O)C2CCOCC2)s1)c1c(F)cccc1F [Compound 492, 2,6-Difluoro-N-[4-(2-furyl)-5-(tetrahydropyran-4-ylcarbonyl)thiazol-2-yl]benzamide] | 168 to 170 °C

The remaining lines, values ahead:

melting point | Structure (SMILES)
238 to 240 °C | CN(C)c1ccc(C(=O)Nc2nc(-c3ccco3)c(C(=O)C3CCOCC3)s2)cc1 [Compound 465, 4-(Dimethylamino)-N-[4-(2-furyl)-5-(tetrahydropyran-4-ylcarbonyl)thiazol-2-yl]benzamide]
229 to 231 °C | O=C(Nc1nc(-c2ccco2)c(C(=O)C2CCOCC2)s1)c1cccc(F)c1 [Compound 467, 3-Fluoro-N-[4-(2-furyl)-5-(tetrahydropyran-4-ylcarbonyl)thiazol-2-yl]benzamide]
210 to 212 °C | O=C(Nc1nc(-c2ccco2)c(C(=O)C2CCOCC2)s1)c1cccc(Cl)c1 [Compound 470, 3-Chloro-N-[4-(2-furyl)-5-(tetrahydropyran-4-ylcarbonyl)thiazol-2-yl]benzamide]
204 to 206 °C | O=C(Nc1nc(-c2ccco2)c(C(=O)C2CCOCC2)s1)c1ccc(Cl)cc1 [Compound 471, 4-Chloro-N-[4-(2-furyl)-5-(tetrahydropyran-4-ylcarbonyl)thiazol-2-yl]benzamide]
231 to 234 °C | N#Cc1ccc(C(=O)Nc2nc(-c3ccco3)c(C(=O)C3CCOCC3)s2)cc1 [Compound 474, 4-Cyano-N-[4-(2-furyl)-5-(tetrahydropyran-4-ylcarbonyl)thiazol-2-yl]benzamide]
177 to 180 °C | O=C(Nc1nc(-c2ccco2)c(C(=O)C2CCOCC2)s1)c1ccc(OC(F)(F)F)cc1 [Compound 477, N-[4-(2-Furyl)-5-(tetrahydropyran-4-ylcarbonyl)thiazol-2-yl]-4-(trifluoromethoxy)benzamide]
109 to 112 °C | CN(C)Cc1ccc(C(=O)Nc2nc(-c3ccco3)c(C(=O)C3CCOCC3)s2)cc1 [Compound 479, 4-(Dimethylaminomethyl)-N-[4-(2-furyl)-5-(tetrahydropyran-4-ylcarbonyl)thiazol-2-yl]benzamide]
160 to 162 °C | O=C(Nc1nc(-c2ccco2)c(C(=O)C2CCOCC2)s1)c1ccc(CN2CCCCC2)cc1 [Compound 480, N-[4-(2-Furyl)-5-(tetrahydropyran-4-ylcarbonyl)thiazol-2-yl]-4-(piperidinomethyl)benzamide]
194 to 195 °C | O=C(Nc1nc(-c2ccco2)c(C(=O)C2CCOCC2)s1)c1ccc(CN2CCC(O)CC2)cc1 [Compound 481, N-[4-(2-Furyl)-5-(tetrahydropyran-4-ylcarbonyl)thiazol-2-yl]-4-(4-hydroxypiperidinomethyl)benzamide]
92 to 96 °C | O=C(Nc1nc(-c2ccco2)c(C(=O)C2CCOCC2)s1)c1ccc(CN2CCOCC2)cc1 [Compound 482, N-[4-(2-Furyl)-5-(tetrahydropyran-4-ylcarbonyl)thiazol-2-yl]-4-(morpholinomethyl)benzamide]
208 to 210 °C | O=C(Nc1nc(-c2ccco2)c(C(=O)C2CCOCC2)s1)c1ccc(F)c(F)c1 [Compound 493, 3,4-Difluoro-N-[4-(2-furyl)-5-(tetrahydropyran-4-ylcarbonyl)thiazol-2-yl]benzamide]
